Assay [1] has as its system MCF-7 cells transfected with BAX/BAK interfering plasmid. Description: Cytotoxicity by MTT, cells transfected with BAX/BAK interfering plasmid. In kind it is cell-based. As to conditions: Homo sapiens, MCF7; MCF-7 with BAX/BAK interfering plasmid, MTT, 48 hours. The essentials: (§1)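 MCF-7 cells transfected with 3 μg BAX/BAK interfering plasmid by calcium phosphate, knockdown checked by Western; untransfected cells run in parallel. Cells treated with a compound concentration gradient for 48 hours; viability by MTT, IC50 derived.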

In another assay the target is Mcl-1 protein (Homo sapiens, UniProt Q07820). Description: Fluorescence polarization assay, competition with FAM-Bid peptide for Mcl-1. Particulars: FAM-Bid 5 nM, 4 hours of incubation, read-out: Mcl-1 binding constants. The procedure:
(§2) A Bid BH3 peptide (amino acids: 79-99: […]) having 21 amino acids was synthesized and marked with 6-carboxyfluorescein N-succinimidyl ester (FAM) as fluorescent tag (FAM-Bid) at the N-terminal. The reaction system used in the competitive binding experiment was GST-Bcl-2 protein (40 nM) or Mcl-1 protein, which was dissolved in the reaction buffer (100 mM K3PO4, pH 7.5; 100 μg/ml bovine γ albumin; 0.02% sodium azide) together with FAM-Bid polypeptide (5 nM). In a 96-well plate, 100 µL of the reaction system was added into each well. Then 1 μL different concentration of compound 13 mother solution to be detected dissolved in DMSO was added there into until the final concentration met the experimental design requirements. Meanwhile, two control groups were established, one with the reaction system only containing Bcl-2 or Mcl-1 and FAM-Bid (equivalent to 0% inhibition rate), the other with the reaction system only containing FAM-Bid peptide. After 4 hours of incubation, the 96-well plate was detected by enzyme-labelled meter. The fluorescent polarization value (mP) was tested at […]. Ki value was deduced according to calculation formula.
(§3) The BH3 analogous degrees of other 12 compounds were detected by using the experimental method as described above.
(Fluorescence polarisation rises when a labelled molecule tumbles more slowly, as on binding a larger partner.)

For another assay, the system named is MCF-7 cells. Description: Cytotoxicity by MTT, cells without plasmid transfection. It is filed as cell-based. Particulars: Homo sapiens, MCF7; MCF-7, MTT, 48 hours; read-out: IC50 value in untransfected cells. A digest of the protocol:
as §1

The next assay concerns Mcl-1. Description: Western blotting, semiquantitative analysis of Mcl-1 protein bands. In kind it is cell-based. Particulars: control = 1, tumor cells. The procedure: (§4) The interest protein was detected by the corresponding antibody. The expression of the interest protein in the cells was detected by horseradish peroxidase-labeled secondary antibodies in combination with ECL coloration method. […] The concentration of the protein bands in the Western images were carried out semiquantitative analysis and normalization treatment with KODAK Gel Logic 1500 imaging system software.
A general note: Immunoblotting shows a protein as a band on a membrane.

The target in the next assay is GST-Bcl-2 protein (Homo sapiens, UniProt P10415). Description: Fluorescence polarization assay, competition with FAM-Bid peptide for Bcl-2. Particulars: GST-Bcl-2 40 nM, FAM-Bid 5 nM, 4 hours of incubation, read-out: Bcl-2 binding constants. The procedure: as §2, §3
Assay [2] concerns the target T1, interaction between Bcl-2 and Bax (Homo sapiens, UniProt P10415).
T1 construct: expressed in transfected cells; host or cells: Hela cells
Description: Intracellular FRET, Bcl-2-CFP/Bax-YFP in Hela cells. In kind it is cell-based. Particulars: for Time (time period after which the interaction between Bcl-2 and Bax was interfered): at the concentration given. A digest of the protocol:
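Hela cells transfected with Bcl-2-CFP and/or Bax-YFP plasmids, then treated with compound in DMSO at 2, 5, 10 and 15 μM for 24 h, or at 40 μM for 3, 6 and 24 h. FRET taken as the 527/475 nm emission ratio at 433 nm excitation, with singly transfected controls set to 1.0. Viability checked by MTT.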

For assay [3], the system named is BAX shift towards the chondriosome. Nature of the assay: Co-localization between Bax protein and chondriosome, Bax-YFP in MCF-7 cells. It is filed as cell-based. Particulars: for Doses (concentration at which the compound drove the BAX to shift towards the chondriosome): Bax-YFP/Mito Tracker Red; for Time (time period after which BAX shifted towards the chondriosome): at the concentration given. The essentials: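 MCF-7 cells transfected with Bax-YFP plasmid; 24 h later treated with 10 μM compound for 6 h, then stained 10 min with 50 nM MitoTracker Red CMXRos. Dual-channel laser confocal imaging; Bax mitochondrial localization read as green/red overlap (orange).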

Another assay deals with Bcl-2. Nature of the assay: Western blotting, semiquantitative analysis of Bcl-2 protein bands. It is filed as cell-based. Particulars: control = 1, tumor cells. The procedure:
as §4

Bounds are passed on as bounds.

Sequence of GST-Bcl-2 protein (P10415 whole entry): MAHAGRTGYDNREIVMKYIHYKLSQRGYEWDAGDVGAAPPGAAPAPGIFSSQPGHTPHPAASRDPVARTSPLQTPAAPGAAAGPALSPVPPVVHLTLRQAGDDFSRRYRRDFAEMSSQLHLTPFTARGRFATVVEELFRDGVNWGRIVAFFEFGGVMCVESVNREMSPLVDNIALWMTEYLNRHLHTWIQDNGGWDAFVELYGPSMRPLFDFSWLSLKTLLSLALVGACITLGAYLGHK
T1 sequence (P10415 whole entry): as above
Sequence of Mcl-1 protein (Q07820 whole entry, species assumed): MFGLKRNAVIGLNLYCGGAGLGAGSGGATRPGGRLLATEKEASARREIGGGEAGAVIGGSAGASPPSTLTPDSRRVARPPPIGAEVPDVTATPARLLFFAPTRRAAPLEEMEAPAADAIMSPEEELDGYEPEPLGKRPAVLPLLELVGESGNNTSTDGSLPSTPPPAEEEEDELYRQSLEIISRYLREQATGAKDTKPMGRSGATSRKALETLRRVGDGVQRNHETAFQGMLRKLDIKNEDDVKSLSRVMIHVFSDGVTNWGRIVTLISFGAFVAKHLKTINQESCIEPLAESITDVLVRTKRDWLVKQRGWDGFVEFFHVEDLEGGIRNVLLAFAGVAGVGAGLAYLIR

For the compound `CC(C)Cc1ccc(Oc2ccc3c4c(cccc24)C2=NC(=O)C(C#N)=C23)cc1` [Compound 15, 3-(4-Isobutyl-phenoxy)-8-oxo-8H-acenaphtho[1,2-b]pyrrole-9-carbonitrile], the IC50 (as a rule, the point on the concentration scale where inhibition reaches its midpoint) in assay [1] is > 50000 nM; in the assay with MCF-7 cells, 7100 nM. Moreover, the Ki turned out to be 12 nM on Mcl-1 protein and 140 nM on GST-Bcl-2 protein. Also, the “concentration of the protein bands (semiquantitative, normalized), Mcl-1” value was 0.69 in the assay with Mcl-1 (2 h) and 0.42 in the assay on Mcl-1 (6 h). Further, the “Doses (concentration at which the compound interfered with the interaction between Bcl-2 and Bax)” value in assay [2] worked out at 0.5 µM. In addition, the “Time (time period after which the interaction between Bcl-2 and Bax was interfered)” value in assay [2] was determined as 4 h. The “Doses (concentration at which the compound drove the BAX to shift towards the chondriosome)” value in assay [3] was 5.0 µM. Also, the “Time (time period after which BAX shifted towards the chondriosome)” value in assay [3] is 3 h. The “concentration of the protein bands (semiquantitative, normalized), Bcl-2” value worked out at 0.99 in the assay with Bcl-2 (6 h), 0.99 with Bcl-2 (12 h), 0.39 in the assay on Bcl-2 (18 h) and 0.12 with Bcl-2 (24 h).
Regarding `CC(C)c1ccc(Oc2ccc3c4c(cccc24)C2=NC(=O)C(C#N)=C23)cc1` [Compound 17, 3-(4-Isopropyl-phenoxy)-8-oxo-8H-acenaphtho[1,2-b]pyrrole-9-carbonitrile], the IC50 was > 50000 nM in assay [1] and 2000 nM in the assay with MCF-7 cells. The Ki on Mcl-1 protein was 85 nM; on GST-Bcl-2 protein, 20 nM. The results for the “concentration of the protein bands (semiquantitative, normalized), Mcl-1” value in the assay with Mcl-1 (2 h) and in the assay with Mcl-1 (6 h) were 0.65 and 0.37, respectively. The “Doses (concentration at which the compound interfered with the interaction between Bcl-2 and Bax)” value in assay [2] amounted to 0.1 µM. Besides, the “Time (time period after which the interaction between Bcl-2 and Bax was interfered)” value in assay [2] stood at 2 h. Besides, the “Doses (concentration at which the compound drove the BAX to shift towards the chondriosome)” value in assay [3] was determined as 1.0 µM. The “Time (time period after which BAX shifted towards the chondriosome)” value in assay [3] is reported as 1 h. The “concentration of the protein bands (semiquantitative, normalized), Bcl-2” value with Bcl-2 (6 h) is given as 0.99; with Bcl-2 (12 h), 0.99; with Bcl-2 (18 h) it was 0.58; with Bcl-2 (24 h), 0.11.
On to `CC(C)Cc1ccc(Sc2ccc3c4c(cccc24)C2=NC(=O)C(C#N)=C23)cc1` [Compound 18, 3-(4-Isobutyl-phenylsulfanyl)-8-oxo-8H-acenaphtho[1,2-b]pyrrole-9-carbonitrile], for which the IC50 in assay [1] was > 50000 nM; with MCF-7 cells, 6800 nM. Also, the Ki at Mcl-1 protein was found to be 8 nM; at GST-Bcl-2 protein, 120 nM. Moreover, the “concentration of the protein bands (semiquantitative, normalized), Mcl-1” value in the assay with Mcl-1 (2 h) was determined as 0.66; with Mcl-1 (6 h), 0.39. Also, the “Doses (concentration at which the compound interfered with the interaction between Bcl-2 and Bax)” value in assay [2] was 0.5 µM. Also, the “Time (time period after which the interaction between Bcl-2 and Bax was interfered)” value in assay [2] was 4 h. Also, the “Doses (concentration at which the compound drove the BAX to shift towards the chondriosome)” value in assay [3] turned out to be 5.0 µM. Also, the “Time (time period after which BAX shifted towards the chondriosome)” value in assay [3] came to 4 h. For the same compound, the “concentration of the protein bands (semiquantitative, normalized), Bcl-2” value is on record as 0.99 in the assay with Bcl-2 (6 h), 0.99 in the assay on Bcl-2 (12 h), 0.36 in the assay on Bcl-2 (18 h) and 0.10 with Bcl-2 (24 h).
For the compound `CC(C)Cc1ccc(Sc2ccc3c4c(cccc24)C2=C(C#N)C(=O)N=C23)cc1` [Compound 19, 4-(4-Isobutyl-phenylsulfanyl)-8-oxo-8H-acenaphtho[1,2-b]pyrrole-9-carbonitrile], the IC50 in assay [1] was > 50000 nM. Moreover, the Ki on Mcl-1 protein worked out at 85 nM. Besides, the IC50 with MCF-7 cells was 2200 nM. Also, the Ki on GST-Bcl-2 protein turned out to be 23 nM. Moreover, in assay [2], the “Doses (concentration at which the compound interfered with the interaction between Bcl-2 and Bax)” value stood at 0.3 µM; the “Time (time period after which the interaction between Bcl-2 and Bax was interfered)” value came to 3 h. For the same compound, in assay [3], the “Doses (concentration at which the compound drove the BAX to shift towards the chondriosome)” value worked out at 3.0 µM and the “Time (time period after which BAX shifted towards the chondriosome)” value came to 3 h.
With `CC(C)c1ccc(Sc2ccc3c4c(cccc24)C2=NC(=O)C(C#N)=C23)cc1` [Compound 20, 3-(4-Isopropyl-phenylsulfanyl)-8-oxo-8H-acenaphtho[1,2-b]pyrrole-9-carbonitrile], the values for the IC50 (in assay [1]; in the assay with MCF-7 cells) were > 50000 nM and 2100 nM, respectively. Moreover, the Ki at Mcl-1 protein was 57 nM; at GST-Bcl-2 protein, 23 nM. In addition, the “concentration of the protein bands (semiquantitative, normalized), Mcl-1” value with Mcl-1 (2 h) is recorded as 0.60; with Mcl-1 (6 h), 0.29. Moreover, the “Doses (concentration at which the compound interfered with the interaction between Bcl-2 and Bax)” value in assay [2] amounted to 0.2 µM. For the same compound, in assay [2], the “Time (time period after which the interaction between Bcl-2 and Bax was interfered)” value was determined as 2 h. For the same compound, the “Doses (concentration at which the compound drove the BAX to shift towards the chondriosome)” value in assay [3] is 5.0 µM. Also, the “Time (time period after which BAX shifted towards the chondriosome)” value in assay [3] was 3 h. The “concentration of the protein bands (semiquantitative, normalized), Bcl-2” value with Bcl-2 (6 h) was found to be 0.99; in the assay on Bcl-2 (12 h), 0.99; in the assay on Bcl-2 (18 h), 0.50; in the assay with Bcl-2 (24 h) it was 0.23.
In the case of `CCC(C)c1ccc(Sc2ccc3c4c(cccc24)C2=NC(=O)C(C#N)=C23)cc1` (stereo not shown) [Compound 21, 3-(4-sec-Butyl-phenylsulfanyl)-8-oxo-8H-acenaphtho[1,2-b]pyrrole-9-carbonitrile], the IC50 in assay [1] was > 50000 nM; in the assay on MCF-7 cells, 1500 nM. Besides, the Ki on Mcl-1 protein is 65 nM; at GST-Bcl-2 protein, 12 nM. Also, the “concentration of the protein bands (semiquantitative, normalized), Mcl-1” value in the assay with Mcl-1 (2 h) worked out at 0.59; in the assay with Mcl-1 (6 h), 0.28. In addition, the “Doses (concentration at which the compound interfered with the interaction between Bcl-2 and Bax)” value in assay [2] was 0.2 µM. In addition, in assay [2], the “Time (time period after which the interaction between Bcl-2 and Bax was interfered)” value was found to be 2 h. For the same compound, in assay [3], the “Doses (concentration at which the compound drove the BAX to shift towards the chondriosome)” value was 2.0 µM. Further, the “Time (time period after which BAX shifted towards the chondriosome)” value in assay [3] was 2 h. The “concentration of the protein bands (semiquantitative, normalized), Bcl-2” value in the assay with Bcl-2 (6 h) amounted to 0.99; in the assay with Bcl-2 (12 h) it was 0.99; with Bcl-2 (18 h), 0.49; in the assay on Bcl-2 (24 h), 0.18.
In the case of `N#CC1=C2C(=NC1=O)c1ccc(C(=O)c3ccc(CN)cc3)c3cccc2c13` [Compound 25, 4-(4-Aminomethyl-benzoyl)-8-oxo-8H-acenaphtho[1,2-b]pyrrole-9-carbonitrile], the IC50 in assay [1] was > 50000 nM; in the assay with MCF-7 cells, 6500 nM. Further, the Ki at Mcl-1 protein came to 135 nM; at GST-Bcl-2 protein it was 115 nM. The “Doses (concentration at which the compound interfered with the interaction between Bcl-2 and Bax)” value in assay [2] came out at 0.6 µM. Besides, in assay [2], the “Time (time period after which the interaction between Bcl-2 and Bax was interfered)” value was 4 h. Moreover, in assay [3], the “Doses (concentration at which the compound drove the BAX to shift towards the chondriosome)” value came to 6.0 µM. For the same compound, the “Time (time period after which BAX shifted towards the chondriosome)” value in assay [3] turned out to be 4 h.
On to `CCCCCCOc1ccc2c3c(cccc13)C1=NC(=O)C(C(=O)O)=C12` [Compound 26, 3-Hexyloxy-8-oxo-8H-acenaphtho[1,2-b]pyrrole-9-carboxylic acid], for which, in assay [1], the IC50 is > 50000 nM. Moreover, the Ki at Mcl-1 protein amounted to 85 nM. Further, the IC50 with MCF-7 cells was 6200 nM. In addition, on GST-Bcl-2 protein, the Ki was 105 nM. Also, in assay [2], the “Doses (concentration at which the compound interfered with the interaction between Bcl-2 and Bax)” value turned out to be 0.5 µM; the “Time (time period after which the interaction between Bcl-2 and Bax was interfered)” value was determined as 5 h. Further, in assay [3], the “Doses (concentration at which the compound drove the BAX to shift towards the chondriosome)” value came out at 5.0 µM and the “Time (time period after which BAX shifted towards the chondriosome)” value was 5 h.

Values taken from patent US8614333B2, “Acenaphtho heterocyclic compound and application thereof” (Dalian University of Technology, priority 2010, dated 2013).
